Measured values: ChEMBL document CHEMBL1201862, “PubChem BioAssay data set” (2004)
The source made the active and inactive calls.

Legend:
Format in all cases: functional
Protein RecA = target: T1, Protein RecA (Mycobacterium tuberculosis, UniProt P9WHJ3); experiment: Fluorescence Cell-Free Homogeneous Dose Retest to Identify Inhibitors of RecA-Intein Splicing Activity. [Related pubchem assays (depositor defined):AID2097, AID2223, AID489010, AID492950]
T1 sequence (P9WHJ3 whole entry): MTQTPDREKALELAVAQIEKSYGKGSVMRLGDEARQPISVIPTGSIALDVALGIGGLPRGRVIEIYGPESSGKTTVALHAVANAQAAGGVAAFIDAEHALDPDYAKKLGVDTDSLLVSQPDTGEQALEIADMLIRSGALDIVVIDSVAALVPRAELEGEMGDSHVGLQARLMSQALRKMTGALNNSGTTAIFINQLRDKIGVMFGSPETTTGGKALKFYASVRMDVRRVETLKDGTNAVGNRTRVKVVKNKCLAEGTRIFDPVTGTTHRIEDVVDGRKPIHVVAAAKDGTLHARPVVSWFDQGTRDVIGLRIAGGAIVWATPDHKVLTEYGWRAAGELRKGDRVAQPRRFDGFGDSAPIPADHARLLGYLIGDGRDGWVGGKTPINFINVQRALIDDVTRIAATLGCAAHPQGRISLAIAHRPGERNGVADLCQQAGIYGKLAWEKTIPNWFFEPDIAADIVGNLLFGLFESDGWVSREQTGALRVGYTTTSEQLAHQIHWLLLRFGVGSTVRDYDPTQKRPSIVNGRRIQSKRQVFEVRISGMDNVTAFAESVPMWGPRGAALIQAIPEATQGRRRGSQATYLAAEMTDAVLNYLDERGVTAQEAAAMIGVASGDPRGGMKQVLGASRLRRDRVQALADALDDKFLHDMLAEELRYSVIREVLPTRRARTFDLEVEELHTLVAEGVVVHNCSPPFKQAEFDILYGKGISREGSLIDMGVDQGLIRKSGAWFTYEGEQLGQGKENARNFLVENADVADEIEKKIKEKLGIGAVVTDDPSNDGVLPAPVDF

[1] = target: T2, Replicative DNA helicase DnaB (Mycobacterium tuberculosis, UniProt P9WMR3); experiment: DnaB intein splicing inhibitors, dose response, biochemical, cell-free fluorescence (AID 449749)
T2 sequence (P9WMR3 whole entry): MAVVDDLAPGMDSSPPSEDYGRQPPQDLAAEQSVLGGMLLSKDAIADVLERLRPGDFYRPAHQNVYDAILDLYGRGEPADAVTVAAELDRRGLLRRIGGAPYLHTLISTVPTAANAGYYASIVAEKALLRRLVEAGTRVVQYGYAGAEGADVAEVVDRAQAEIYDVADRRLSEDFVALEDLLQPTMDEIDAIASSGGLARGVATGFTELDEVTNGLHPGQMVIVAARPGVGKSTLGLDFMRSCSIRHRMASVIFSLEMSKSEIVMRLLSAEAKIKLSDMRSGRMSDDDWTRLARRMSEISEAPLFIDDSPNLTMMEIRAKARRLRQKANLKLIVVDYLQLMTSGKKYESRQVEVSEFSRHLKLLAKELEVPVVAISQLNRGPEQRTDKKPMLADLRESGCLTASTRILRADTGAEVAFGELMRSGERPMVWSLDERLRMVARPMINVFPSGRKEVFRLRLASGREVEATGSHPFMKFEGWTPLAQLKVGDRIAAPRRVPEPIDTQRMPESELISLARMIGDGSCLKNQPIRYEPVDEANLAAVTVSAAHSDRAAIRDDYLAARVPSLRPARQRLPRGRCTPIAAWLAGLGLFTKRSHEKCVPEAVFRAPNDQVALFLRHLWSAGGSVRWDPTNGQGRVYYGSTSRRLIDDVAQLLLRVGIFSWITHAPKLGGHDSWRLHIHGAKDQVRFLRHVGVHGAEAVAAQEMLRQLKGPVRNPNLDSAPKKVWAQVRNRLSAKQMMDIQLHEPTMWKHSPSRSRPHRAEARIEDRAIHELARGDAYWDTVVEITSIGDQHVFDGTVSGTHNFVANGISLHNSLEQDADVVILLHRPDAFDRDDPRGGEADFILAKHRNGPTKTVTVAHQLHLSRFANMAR

[2] = target: T3, Apoptotic protease-activating factor 1 (Homo sapiens, UniProt O14727)
T3 sequence (O14727 whole entry): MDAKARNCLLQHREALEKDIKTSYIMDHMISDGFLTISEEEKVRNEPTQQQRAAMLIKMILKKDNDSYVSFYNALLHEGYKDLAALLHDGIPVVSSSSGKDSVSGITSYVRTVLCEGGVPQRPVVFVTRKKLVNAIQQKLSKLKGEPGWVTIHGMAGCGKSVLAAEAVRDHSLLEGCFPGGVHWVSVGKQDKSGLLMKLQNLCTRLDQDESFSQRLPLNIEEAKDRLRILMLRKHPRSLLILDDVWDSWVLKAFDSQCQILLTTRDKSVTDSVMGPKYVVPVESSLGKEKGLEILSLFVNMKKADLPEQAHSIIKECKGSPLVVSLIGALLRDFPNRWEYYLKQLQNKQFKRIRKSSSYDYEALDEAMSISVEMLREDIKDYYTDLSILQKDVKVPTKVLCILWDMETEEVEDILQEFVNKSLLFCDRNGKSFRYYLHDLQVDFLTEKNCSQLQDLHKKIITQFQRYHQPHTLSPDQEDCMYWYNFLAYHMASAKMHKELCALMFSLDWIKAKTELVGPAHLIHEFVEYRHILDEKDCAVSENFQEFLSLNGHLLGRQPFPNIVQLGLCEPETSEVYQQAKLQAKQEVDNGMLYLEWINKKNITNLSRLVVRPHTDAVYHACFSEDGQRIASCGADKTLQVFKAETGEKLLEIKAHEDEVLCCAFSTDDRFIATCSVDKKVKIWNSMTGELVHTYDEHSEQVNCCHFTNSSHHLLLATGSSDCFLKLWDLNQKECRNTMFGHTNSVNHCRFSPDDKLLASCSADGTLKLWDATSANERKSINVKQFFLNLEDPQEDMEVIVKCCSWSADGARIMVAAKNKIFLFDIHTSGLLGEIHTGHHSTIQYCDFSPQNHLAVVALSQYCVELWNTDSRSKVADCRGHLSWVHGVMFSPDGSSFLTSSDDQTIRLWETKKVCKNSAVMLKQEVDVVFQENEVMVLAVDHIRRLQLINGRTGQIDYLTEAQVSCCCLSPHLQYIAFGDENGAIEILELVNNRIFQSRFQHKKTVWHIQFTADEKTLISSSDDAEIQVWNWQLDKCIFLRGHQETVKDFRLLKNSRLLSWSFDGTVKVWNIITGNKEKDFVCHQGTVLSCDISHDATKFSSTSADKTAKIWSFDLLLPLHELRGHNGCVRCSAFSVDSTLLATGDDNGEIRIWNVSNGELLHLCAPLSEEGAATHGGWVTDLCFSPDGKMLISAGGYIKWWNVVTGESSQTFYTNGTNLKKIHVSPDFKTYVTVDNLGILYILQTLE

[3] = viability of HCT116 lacking mutant beta-catenin – cell-based, human colon tumor, dose response (AID 1045);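 also: HCT116 colon tumor cells with beta catenin knocked out; cells exposed to compound for 60 hours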

SMILES	EC50 (Protein RecA)	AC50 [1]	IC50 [2]	EC50 [3]
O=C1c2cc(F)ccc2-n2c1nc1ccccc1c2=O	> 380 µM (inactive)	> 120 µM (inactive)	3.8 µM (active)	
CCOC(=O)C1=C(c2ccc(OC)cc2)C(=O)c2ccccc2C1=O	1.83 µM (active)	4.41 µM (active)		2.33 µM (active)
COCCCNC(=O)c1ccc2c3c(onc13)-c1ccccc1C2=O	13 µM (active)		15.7 µM (active)	
O=C1C=C(N(CCO)Cc2ccccc2)c2ccccc2C1=O	0.402 µM (active)	> 380 µM (inconclusive)		
CCC(=O)OCCNc1cc(Sc2nccn2C)c2nonc2c1[N+](=O)[O-]	1.37 µM (active)	2.9 µM (active)		3.98 µM (active)
CCCCn1c(NC(=O)c2ccccc2Cl)c(C#N)c2nc3ccccc3nc21			13.7 µM (active)	
CCc1ccc(OCC(=O)N/N=C2\CC(=O)c3ccccc32)cc1	1.24 µM (active)	6.09 µM (active)	18.5 µM (active)	11.6 µM (active)
O=C1C(=O)c2ccccc2-c2ccccc21 [9,10-PHENANTHRENEQUINONE]	7.45 µM (active)	6.47 µM (active)	0.549 µM (active)	
